Earlier results as cited in patent US20050042712A1, “Methods, compositions and instruments to predict antimicrobial or preservative activity” (ADVANCED MEDICAL OPTICS, INC., priority 2003, published 2005).
Where two headings read alike, the source gives them in different places.

pKa (carboxyphenyl group): 2.7
pKa (phenolate anion): 3.6
solubility in water (water): freely soluble in water
SMILES: O=C1OC2(c3ccccc31)c1cc(Br)c(O)c(Br)c1Oc1c2cc(Br)c(O)c1Br.[Na].[Na] [Eosin Y, 2′,4′,5′,7′-Tetrabromo-3′,6′-dihydroxyspiro(isobenzofuran-1(3H),9′-(9H)xanthen)-3-one disodium salt]
